{"source": "paper PMC5772529", "about": "(Scientific Reports, 2018)", "key": {"[1]": {"system": "Beagle dogs", "settings": "dog, in vivo"}, "[2]": {"target": "T1, human CaV2.2 (α1B, β3, α2δ1) (Homo sapiens, UniProt Q00975)", "T1 construct": "expressed in transfected cells", "T1 sequence (Q00975 whole entry, looked up)": "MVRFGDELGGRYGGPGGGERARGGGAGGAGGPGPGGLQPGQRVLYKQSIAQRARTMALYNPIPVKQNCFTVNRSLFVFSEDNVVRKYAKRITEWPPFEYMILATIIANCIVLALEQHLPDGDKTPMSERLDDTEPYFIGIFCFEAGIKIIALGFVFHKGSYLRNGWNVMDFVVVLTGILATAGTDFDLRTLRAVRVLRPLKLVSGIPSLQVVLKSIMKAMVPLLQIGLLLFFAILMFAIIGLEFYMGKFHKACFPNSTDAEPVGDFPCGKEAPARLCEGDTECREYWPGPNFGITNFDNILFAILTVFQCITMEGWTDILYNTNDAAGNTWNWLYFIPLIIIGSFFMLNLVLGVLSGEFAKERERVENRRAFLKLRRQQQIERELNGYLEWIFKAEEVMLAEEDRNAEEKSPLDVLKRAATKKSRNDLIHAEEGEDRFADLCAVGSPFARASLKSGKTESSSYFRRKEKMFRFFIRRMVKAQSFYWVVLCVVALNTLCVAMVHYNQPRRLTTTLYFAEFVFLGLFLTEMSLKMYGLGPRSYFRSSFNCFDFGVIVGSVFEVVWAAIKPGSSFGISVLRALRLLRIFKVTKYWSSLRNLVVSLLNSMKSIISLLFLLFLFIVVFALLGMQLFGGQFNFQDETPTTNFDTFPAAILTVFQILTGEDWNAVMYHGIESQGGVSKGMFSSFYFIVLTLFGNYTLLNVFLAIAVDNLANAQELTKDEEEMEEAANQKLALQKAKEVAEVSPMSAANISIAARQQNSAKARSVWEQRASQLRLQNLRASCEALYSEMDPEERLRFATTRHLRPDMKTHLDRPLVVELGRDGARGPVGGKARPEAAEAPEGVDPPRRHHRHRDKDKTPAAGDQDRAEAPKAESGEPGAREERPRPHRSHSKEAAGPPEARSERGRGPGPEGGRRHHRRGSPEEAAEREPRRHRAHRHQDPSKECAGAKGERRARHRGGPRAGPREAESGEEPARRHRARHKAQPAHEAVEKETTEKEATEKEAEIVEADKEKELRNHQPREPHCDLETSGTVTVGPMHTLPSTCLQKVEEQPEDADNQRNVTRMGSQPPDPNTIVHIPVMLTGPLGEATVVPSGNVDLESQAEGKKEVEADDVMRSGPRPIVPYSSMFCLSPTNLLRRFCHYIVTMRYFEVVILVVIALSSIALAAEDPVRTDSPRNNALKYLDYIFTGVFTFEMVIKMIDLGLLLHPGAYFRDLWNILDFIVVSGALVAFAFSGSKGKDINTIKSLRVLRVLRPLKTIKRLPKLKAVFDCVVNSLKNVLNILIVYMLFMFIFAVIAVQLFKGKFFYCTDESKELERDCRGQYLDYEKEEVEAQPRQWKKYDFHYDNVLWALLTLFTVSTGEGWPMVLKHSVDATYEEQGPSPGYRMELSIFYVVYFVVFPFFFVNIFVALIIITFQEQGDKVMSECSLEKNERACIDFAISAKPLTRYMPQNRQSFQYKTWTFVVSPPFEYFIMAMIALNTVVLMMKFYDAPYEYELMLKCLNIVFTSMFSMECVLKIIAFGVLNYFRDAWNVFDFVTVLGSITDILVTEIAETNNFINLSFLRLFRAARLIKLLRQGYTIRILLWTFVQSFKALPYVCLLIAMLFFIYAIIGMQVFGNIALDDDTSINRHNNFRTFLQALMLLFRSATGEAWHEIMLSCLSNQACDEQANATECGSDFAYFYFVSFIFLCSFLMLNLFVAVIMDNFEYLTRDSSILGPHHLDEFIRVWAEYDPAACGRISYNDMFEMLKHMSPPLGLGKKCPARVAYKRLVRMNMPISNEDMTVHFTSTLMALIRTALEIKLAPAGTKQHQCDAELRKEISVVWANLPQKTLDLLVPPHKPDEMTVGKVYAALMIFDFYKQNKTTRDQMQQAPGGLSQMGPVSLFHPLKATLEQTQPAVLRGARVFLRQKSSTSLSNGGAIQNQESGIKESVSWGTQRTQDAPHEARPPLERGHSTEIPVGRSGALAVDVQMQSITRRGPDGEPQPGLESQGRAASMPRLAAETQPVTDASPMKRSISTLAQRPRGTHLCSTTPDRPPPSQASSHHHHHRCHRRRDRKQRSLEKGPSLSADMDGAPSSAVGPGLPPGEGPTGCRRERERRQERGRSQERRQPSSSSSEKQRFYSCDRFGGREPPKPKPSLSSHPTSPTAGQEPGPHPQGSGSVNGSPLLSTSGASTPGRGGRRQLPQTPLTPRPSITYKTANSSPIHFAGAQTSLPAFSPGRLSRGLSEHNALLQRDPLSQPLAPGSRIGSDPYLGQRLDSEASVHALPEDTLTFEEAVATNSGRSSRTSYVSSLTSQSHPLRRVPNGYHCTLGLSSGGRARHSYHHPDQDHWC", "assay": "cell-based", "design": "Emax: dose or concentration left out as unconfirmed"}}, "note": "Positions of bridges follow the written chain, without caps; N, C: chain ends. Residues, ends and D or L forms follow the SMILES beside them.", "data": [{"compound": "CSCC[C@@H]1NC(=O)[C@@H]2CSSC[C@H](NC(=O)CN)C(=O)N[C@@H](CSSC[C@@H](C(N)=O)NC(=O)[C@H](CC(C)C)NC(=O)[C@H](CC(N)=O)NC(=O)[C@@H]3CCCN3C(=O)[C@H](CC(N)=O)NC(=O)[C@H](CCCCN)NC(=O)[C@H](CC(C)C)NC1=O)C(=O)N[C@@H](CO)C(=O)N[C@@H](CC(N)=O)C(=O)N1CCC[C@H]1C(=O)N[C@@H](C)C(=O)N2", "note": "[Eu1.6] (H-GCCSNPACMLKNPNLC-NH2; disulfide 2-8, 3-16)", "values": [{"measurement": "physiological impairments of baseline parameters (locomotion, cardiac and respiratory function)", "setting": "[1]", "value": "no physiological impairments"}, {"measurement": "IC50", "setting": "[2]", "value": 1.1, "unit": "nM"}, {"measurement": "maximum block of CaV2.2", "setting": "[2]", "value": "< 50", "unit": "%"}, {"measurement": "reduction of peak current density", "setting": "[2]", "value": "> 40", "unit": "%"}, {"measurement": "inhibition at 1 µM", "setting": "[2]; HEK293, read-out: inhibition of depolarization-activated Ba2+ current amplitude", "value": "> 30", "unit": "%"}, {"measurement": "Emax", "setting": "[2]; HEK293, read-out: maximal effect (partial inhibitor)", "value": 40, "unit": "%"}]}]}
